Data from patent publication US8063088B2 (Hoffmann-La Roche Inc., priority 2008, dated 2011).
pIC50: −log10 of the molar value.

How the values were obtained:
human LXR beta = target: T1, human LXR beta (Homo sapiens, UniProt P55055); test: Radioligand binding assay (SPA), LXR beta LBD; details: radioligand displacement, LXR beta-LBD on SPA beads; read-out: LXRbeta Binding IC50
T1 construct: human LXR beta (aa 155 to 460); unspecified tag ('tagged versions'); made in house; host or cells: E. coli BL21 (pLysS)
T1 sequence (P55055 155-460): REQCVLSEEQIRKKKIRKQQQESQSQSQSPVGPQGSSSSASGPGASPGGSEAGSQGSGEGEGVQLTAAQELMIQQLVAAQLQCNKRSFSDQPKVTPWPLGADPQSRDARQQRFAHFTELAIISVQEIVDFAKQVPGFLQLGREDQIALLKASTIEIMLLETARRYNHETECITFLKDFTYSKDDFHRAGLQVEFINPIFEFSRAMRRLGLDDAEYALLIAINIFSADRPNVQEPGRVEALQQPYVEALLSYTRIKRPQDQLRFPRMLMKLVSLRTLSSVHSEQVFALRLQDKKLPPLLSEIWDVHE
Method: (§1) The following tests were carried out in order to determine the activity of the compounds of the present invention. Background information on the performed assays can be found in: Nichols J S et al. “Development of a scintillation proximity assay for peroxisome proliferator-activated receptor gamma ligand binding domain”, Anal Biochem. 1998, 257: 112-119.
(§2) Mammalian expression vectors were constructed to express full-length human LXR alpha and LXR beta. Bacterial expression vectors were constructed to produce tagged versions of the ligand binding domains (LBD) of human LXR alpha (aa 164 to 447) and human LXR beta (aa 155 to 460). To accomplish this, the portions of the sequences encoding the LBDs were amplified from the full-length clones by PCR and then subcloned into the plasmid vectors. Final clones were verified by DNA sequence analysis (Willy et al., Genes Dev. 1995, 9:1033-45; Song et al., Proc Natl Acad Sci USA. 1994, 91:10809-13).
(§3) Induction, expression, and purification of LBD proteins were performed in E. coli strain BL21 (pLysS) cells by standard methods (Ref: Current Protocols in Molecular Biology, Wiley Press, edited by Ausubel et al).
(§4) Radioligand Binding Assay
(§5) LXR alpha and LXR beta receptor binding were assayed in buffer consisting of 50 mM HEPES, pH 7.4, 10 mM NaCl, 5 mM MgCl2. For each 96-well reaction, 500 ng of LXRα-LBD or 700 ng of LXR beta-LBD proteins were bound to 80 μg or 40 μg SPA beads respectively, in a final volume of 50 μl by shaking. The resulting slurry was incubated for 1 h at RT and centrifuged for 2 min at 1300×g. The supernatant containing unbound protein was removed, and the semi-dry pellet containing the receptor-coated beads was re-suspended in 50 μl of buffer. Radioligand (eg. 100,000 dpm of (N-(2,2,2-trifluoroethyl)-N-[4-(2,2,2-trifluoro-1-hydroxy-1-trifluoromethylethyl)-phenyl]-benzenesulfonamide)) was added, and the reaction incubated at RT for 1 h in the presence of test compounds, and then scintillation proximity counting was performed. All binding assays were performed in 96-well plates and the amount of bound ligand was measured on a Packard TopCount using OptiPlates (Packard). Dose response curves were measured within a range of concentration from 10^−10 M to 10^−4 M.

human LXR alpha = target: T2, human LXR alpha (Homo sapiens, UniProt Q13133); test: Radioligand binding assay (SPA), LXR alpha LBD; details: radioligand displacement, LXRα-LBD on SPA beads; read-out: LXRalpha Binding IC50
T2 construct: human LXR alpha (aa 164 to 447); unspecified tag ('tagged versions'); made in house; host or cells: E. coli BL21 (pLysS)
T2 sequence (Q13133 164-447): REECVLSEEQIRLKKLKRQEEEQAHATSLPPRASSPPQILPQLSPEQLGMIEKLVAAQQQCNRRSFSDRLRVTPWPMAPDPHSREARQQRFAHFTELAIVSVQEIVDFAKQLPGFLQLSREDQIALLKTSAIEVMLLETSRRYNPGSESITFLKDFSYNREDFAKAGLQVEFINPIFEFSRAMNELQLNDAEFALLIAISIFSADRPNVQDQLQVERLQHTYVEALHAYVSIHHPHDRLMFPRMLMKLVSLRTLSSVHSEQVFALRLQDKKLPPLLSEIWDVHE
Method: as §1, §2, §3, §4, §5

CC(C)N1C(=O)N(S(=O)(=O)c2ccccc2)CC1c1cccc(-c2ccc(CO)c(S(C)(=O)=O)c2)c1 (stereo not shown) [Example 20, 1-Benzenesulfonyl-4-(4′-hydroxymethyl-3′-methanesulfonyl-biphenyl-3-yl)-3-isopropyl-imidazolidin-2-one]
pIC50 (human LXR beta): 9.00 | pIC50 (human LXR alpha): 8.22

Cc1ccc(C)c(-c2cccc([C@@H]3CN(C(=O)OC(C)(C)C)CC[C@@H]3c3ccccc3)c2)c1 (relative stereo) [Example 41, cis-3-(2′,5′-Dimethyl-biphenyl-3-yl)-4-phenyl-piperidine-1-carboxylic acid tert-butyl ester]
pIC50 (human LXR beta): 4.43 | pIC50 (human LXR alpha): 4.56
